Patent publication US20260125382A1, “COMPOUNDS FOR INHIBITING OR DEGRADING CDK2 AND/OR CDK9 AND MEDICINAL USE THEREOF” (KOREA RESEARCH INSTITUTE OF CHEMICAL TECHNOLOGY, priority 2022, published 2026)

Legend:
[1] = target: T1, CDK2 (Homo sapiens, UniProt P24941); test: CDK protein degradation activity (Western blotting), CDK2; format: cell-based; details: MDA-MB-231 cells, 16 hours, Western blot
T1 construct: endogenous in cells; host or cells: MDA-MB-231
How it was run: (§1)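 MDA-MB-231 cells were treated with compound at final concentrations of 100 nM, 1 μM and 10 μM, or DMSO vehicle, for 16 h. Lysates were resolved by SDS-PAGE and immunoblotted for CDK2, CDK9 and tubulin, with band intensities quantified densitometrically.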

[2] = target: T2, CDK9 (Homo sapiens, UniProt P50750); test: CDK protein degradation activity (Western blotting), CDK9; format: cell-based; details: MDA-MB-231 cells, 16 hours, Western blot
T2 construct: endogenous in cells; host or cells: MDA-MB-231
T2 sequence (P50750 whole entry): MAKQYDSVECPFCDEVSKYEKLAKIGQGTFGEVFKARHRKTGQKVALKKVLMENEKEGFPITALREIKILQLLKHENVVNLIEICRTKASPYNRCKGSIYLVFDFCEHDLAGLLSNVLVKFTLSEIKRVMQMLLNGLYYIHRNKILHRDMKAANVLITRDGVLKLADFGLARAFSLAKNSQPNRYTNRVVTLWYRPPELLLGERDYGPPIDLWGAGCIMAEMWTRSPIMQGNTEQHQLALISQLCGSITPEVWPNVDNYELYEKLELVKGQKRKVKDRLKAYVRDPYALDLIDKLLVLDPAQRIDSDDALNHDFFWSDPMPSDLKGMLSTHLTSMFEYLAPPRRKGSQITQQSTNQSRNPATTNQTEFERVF
How it was run: as §1

SMILES	Enzyme degradation CDK2 (% remaining) @ 0.1 μM [1]	Enzyme degradation CDK2 (% remaining) @ 1 μM [1]	Enzyme degradation CDK2 (% remaining) @ 10 μM [1]	Enzyme degradation CDK9 (% remaining) @ 0.1 μM [2]	Enzyme degradation CDK9 (% remaining) @ 1 μM [2]	Enzyme degradation CDK9 (% remaining) @ 10 μM [2]
O=C1CC[C@H](N2C(=O)c3ccc(NCC(=O)N4CCC5(CC(N6CCN(c7ccc(Nc8ncnc9c8ncn9[C@H]8C[C@@H](NC(=O)Cc9ccccc9)C8)cc7)CC6)C5)C4)cc3C2=O)C(=O)N1 (stereo partly drawn) [Compound 265, N-((1s,3s)-3-(6-((4-(4-(6-((2-(2,6-dioxopiperidin-3-yl)-1,3-dioxoisoindolin-5-yl)glycyl)-6-azaspiro[3.4]octan-2-yl)piperazin-1-yl)phenyl)amino)-9H-purin-9-yl)cyclobutyl)-2-phenylacetamide]	90%	70%	70%	10%	0%	0%
O=C1CC[C@@H](c2ccc(OCC(=O)N3CCC4(CC(N5CCN(c6ccc(Nc7ncnc8c7ncn8C7CC(NC(=O)Cc8ccccc8)C7)cc6)CC5)C4)C3)cc2)C(=O)N1 (stereo partly drawn) [Compound 268, N-((1s,3s)-3-(6-((4-(4-(6-(2-(4-(2,6-dioxopiperidin-3-yl)phenoxy)acetyl)-6-azaspiro[3.4]octan-2-yl)piperazin-1-yl)phenyl)amino)-9H-purin-9-yl)cyclobutyl)-2-phenylacetamide]	70%	50%	20%	70%	0%	0%
O=C1CCC(c2cccc(OCC(=O)N3CCC4(CC(N5CCN(c6ccc(Nc7ncnc8c7ncn8[C@H]7C[C@@H](NC(=O)Cc8ccccc8)C7)cc6)CC5)C4)C3)c2)C(=O)N1 (stereo partly drawn) [Compound 269, N-((1s,3s)-3-(6-((4-(4-(6-(2-(3-(2,6-dioxopiperidin-3-yl)phenoxy)acetyl)-6-azaspiro[3.4]octan-2-yl)piperazin-1-yl)phenyl)amino)-9H-purin-9-yl)cyclobutyl)-2-phenylacetamide]	10/10/10%	10/10/10%	10/10/10%	30%	10%	10%
COc1ccc(C(=O)N2CC(N3CCC4(CC3)CC(N3CCN(c5ccc(Nc6ncnc7c6ncn7[C@H]6C[C@@H](NC(=O)Cc7ccccc7)C6)cc5)CC3)C4)C2)cc1N1CCC(=O)NC1=O [Compound 272, N-((1s,3s)-3-(6-((4-(4-(7-(1-(3-(2,4-dioxotetrahydropyrimidin-1(2H)-yl)-4-methoxybenzoyl)azetidin-3-yl)-7-azaspiro[3.5]nonan-2-yl)piperazin-1-yl)phenyl)amino)-9H-purin-9-yl)cyclobutyl)-2-phenylacetamide]	40/40/40%	40/40/40%	40/40/40%	30%	20%	20%
O=C1CC[C@@H](c2ccc(OCC(=O)N3CC(N4CCC5(CC4)CC(N4CCN(c6ccc(Nc7ncnc8c7ncn8[C@H]7C[C@@H](NC(=O)Cc8ccccc8)C7)cc6)CC4)C5)C3)cc2)C(=O)N1 [Compound 273, N-((1s,3s)-3-(6-((4-(4-(7-(1-(2-(4-(2,6-dioxopiperidin-3-yl)phenoxy)acetyl)azetidin-3-yl)-7-azaspiro[3.5]nonan-2-yl)piperazin-1-yl)phenyl)amino)-9H-purin-9-yl)cyclobutyl)-2-phenylacetamide]	100%	70%	50%	20%	10%	10%
O=C1CCC(c2ccc(OCC(=O)N3CC(CN4CCC5(CC4)CC(N4CCN(c6ccc(Nc7ncnc8c7ncn8[C@H]7C[C@@H](NC(=O)Cc8ccccc8)C7)cc6)CC4)C5)C3)cc2)C(=O)N1 (stereo partly drawn) [Compound 275, N-((1s,3s)-3-(6-((4-(4-(7-((1-(2-(4-(2,6-dioxopiperidin-3-yl)phenoxy)acetyl)azetidin-3-yl)methyl)-7-azaspiro[3.5]nonan-2-yl)piperazin-1-yl)phenyl)amino)-9H-purin-9-yl)cyclobutyl)-2-phenylacetamide]	80%	60%	60%	70%	30%	0%
O=C1CC[C@@H](c2cccc(OCC(=O)N3CC(CN4CCC5(CC4)CC(N4CCN(c6ccc(Nc7ncnc8c7ncn8[C@H]7C[C@@H](NC(=O)Cc8ccccc8)C7)cc6)CC4)C5)C3)c2)C(=O)N1 [Compound 276, N-((1s,3s)-3-(6-((4-(4-(7-((1-(2-(3-(2,6-dioxopiperidin-3-yl)phenoxy)acetyl)azetidin-3-yl)methyl)-7-azaspiro[3.5]nonan-2-yl)piperazin-1-yl)phenyl)amino)-9H-purin-9-yl)cyclobutyl)-2-phenylacetamide]	30%	20%	20%	10%	0%	0%

Other lines, results leading:

Enzyme degradation CDK2 (% remaining) @ 0.1 μM [1]	Enzyme degradation CDK2 (% remaining) @ 1 μM [1]	Enzyme degradation CDK2 (% remaining) @ 10 μM [1]	Enzyme degradation CDK9 (% remaining) @ 0.1 μM [2]	Enzyme degradation CDK9 (% remaining) @ 1 μM [2]	Enzyme degradation CDK9 (% remaining) @ 10 μM [2]	SMILES
50%	20%	10%	90%	40%	0%	O=C1CC[C@H](N2C(=O)c3cccc(OCC(=O)N4CCC5(CC(N6CCN(c7ccc(Nc8ncnc9c8ncn9[C@H]8C[C@@H](NC(=O)Cc9ccccc9)C8)cc7)CC6)C5)C4)c3C2=O)C(=O)N1 (stereo partly drawn) [Compound 264, N-((1s,3s)-3-(6-((4-(4-(6-(2-((2-(2,6-dioxopiperidin-3-yl)-1,3-dioxoisoindolin-4-yl)oxy)acetyl)-6-azaspiro[3.4]octan-2-yl)piperazin-1-yl)phenyl)amino)-9H-purin-9-yl)cyclobutyl)-2-phenylacetamide]
40%	30%	30%	40%	30%	30%	O=C1CC[C@H](N2C(=O)c3cccc(N4CC(N5CCC6(CC5)CC(N5CCN(c7ccc(Nc8ncnc9c8ncn9[C@H]8C[C@@H](NC(=O)Cc9ccccc9)C8)cc7)CC5)C6)C4)c3C2=O)C(=O)N1 [Compound 270, N-((1s,3s)-3-(6-((4-(4-(7-(1-(2-(2,6-dioxopiperidin-3-yl)-1,3-dioxoisoindolin-4-yl)azetidin-3-yl)-7-azaspiro[3.5]nonan-2-yl)piperazin-1-yl)phenyl)amino)-9H-purin-9-yl)cyclobutyl)-2-phenylacetamide]
30%	40%	40%	20%	10%	10%	O=C1CC[C@H](N2C(=O)c3ccc(N4CC(N5CCC6(CC5)CC(N5CCN(c7ccc(Nc8ncnc9c8ncn9C8CC(NC(=O)Cc9ccccc9)C8)cc7)CC5)C6)C4)cc3C2=O)C(=O)N1 (stereo partly drawn) [Compound 271, N-((1s,3s)-3-(6-((4-(4-(7-(1-(2-(2,6-dioxopiperidin-3-yl)-1,3-dioxoisoindolin-5-yl)azetidin-3-yl)-7-azaspiro[3.5]nonan-2-yl)piperazin-1-yl)phenyl)amino)-9H-purin-9-yl)cyclobutyl)-2-phenylacetamide]
30%	20%	20%	30/30/30%	30/30/30%	30/30/30%	O=C1CC[C@@H](c2cccc(OCC(=O)N3CC(N4CCC5(CC4)CC(N4CCN(c6ccc(Nc7ncnc8c7ncn8[C@H]7C[C@@H](NC(=O)Cc8ccccc8)C7)cc6)CC4)C5)C3)c2)C(=O)N1 [Compound 274, N-((1s,3s)-3-(6-((4-(4-(7-(1-(2-(3-(2,6-dioxopiperidin-3-yl)phenoxy)acetyl)azetidin-3-yl)-7-azaspiro[3.5]nonan-2-yl)piperazin-1-yl)phenyl)amino)-9H-purin-9-yl)cyclobutyl)-2-phenylacetamide]
30/30/30%	30/30/30%	30/30/30%	0/0/0%	0/0/0%	0/0/0%	O=C1CCC(N2C(=O)c3cccc(NCC(=O)N4CC(N5CCC6(CC5)CC(N5CCN(c7ccc(Nc8ncnc9c8ncn9[C@H]8C[C@@H](NC(=O)Cc9ccccc9)C8)cc7)CC5)C6)C4)c3C2=O)C(=O)N1 (stereo partly drawn) [Compound 277, N-((1s,3s)-3-(6-((4-(4-(7-(1-((2-(2,6-dioxopiperidin-3-yl)-1,3-dioxoisoindolin-4-yl)glycyl)azetidin-3-yl)-7-azaspiro[3.5]nonan-2-yl)piperazin-1-yl)phenyl)amino)-9H-purin-9-yl)cyclobutyl)-2-phenylacetamide]
